{"source": "PubChem BioAssay AID1845204", "about": "(Molecular Pharmacology Branch, DTP, NCI, 2023)", "test_system": "HSSY-II tumor spheroid viability", "test": "Anticancer human tumor HSSY-II cell line growth inhibition;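 for all read-outs here: spheroids exposed to compounds for seven days before reading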;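 for viability, T/C: percent of DMSO vehicle control viability so 100% = untreated level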", "settings": "spheroids with HUVEC and MSC; for IC50: curve of first compound; for viability, T/C: stronger effect = lower value", "method_in_brief": "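Complex spheroids of malignant cells with endothelial cells and mesenchymal stem cells; agents alone or combined, from near clinical Cmax (or 10 microM if unknown) down in half-log steps, 0.25% DMSO final.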", "data": [{"smiles": "Cc1cc(C)c(CNC(=O)c2cc(-c3ccc(CN4CCOCC4)cc3)cc3c2cnn3C2CCCC2)c(=O)[nH]1", "note": "+ COc1cc2c(cc1O)CCNC21CSC2c3c(OC(C)=O)c(C)c4c(c3C(COC1=O)N1C(O)C3Cc5cc(C)c(OC)c(O)c5C(C21)N3C)OCO4", "values": [{"measurement": "IC50", "setting": "second compound 30 pM", "value": "> 10", "unit": "µM"}, {"measurement": "IC50", "setting": "second compound 94.9 pM", "value": 8.46, "unit": "µM"}, {"measurement": "IC50", "setting": "second compound 0.0003 µM", "value": "< 0.0316", "unit": "µM"}, {"measurement": "IC50", "setting": "second compound 0.000949 µM", "value": "< 0.0316", "unit": "µM"}, {"measurement": "IC50", "setting": "second compound 0.003 µM", "value": "< 0.0316", "unit": "µM"}, {"measurement": "viability, T/C", "setting": "second compound 30 pM, first compound 0.0316 µM", "value": 106, "unit": "%"}, {"measurement": "viability, T/C", "setting": "second compound 30 pM, first compound 0.1 µM", "value": 106, "unit": "%"}, {"measurement": "viability, T/C", "setting": "second compound 30 pM, first compound 0.316 µM", "value": 108, "unit": "%"}, {"measurement": "viability, T/C", "setting": "second compound 30 pM, first compound 1 µM", "value": 108, "unit": "%"}, {"measurement": "viability, T/C", "setting": "second compound 30 pM, first compound 3.16 µM", "value": 107, "unit": "%"}, {"measurement": "viability, T/C", "setting": "second compound 30 pM, first compound 10 µM", "value": 76.6, "unit": "%"}, {"measurement": "viability, T/C", "setting": "second compound 94.9 pM, first compound 0.0316 µM", "value": 92.4, "unit": "%"}, {"measurement": "viability, T/C", "setting": "second compound 94.9 pM, first compound 0.1 µM", "value": 100, "unit": "%"}, {"measurement": "viability, T/C", "setting": "second compound 94.9 pM, first compound 0.316 µM", "value": 91.3, "unit": "%"}, {"measurement": "viability, T/C", "setting": "second compound 94.9 pM, first compound 1 µM", "value": 86, "unit": "%"}, {"measurement": "viability, T/C", "setting": "second compound 94.9 pM, first compound 3.16 µM", "value": 79.4, "unit": "%"}, {"measurement": "viability, T/C", "setting": "second compound 94.9 pM, first compound 10 µM", "value": 45.1, "unit": "%"}, {"measurement": "viability, T/C", "setting": "second compound 0.0003 µM, first compound 0.0316 µM", "value": 15.2, "unit": "%"}, {"measurement": "viability, T/C", "setting": "second compound 0.0003 µM, first compound 0.1 µM", "value": 15.1, "unit": "%"}, {"measurement": "viability, T/C", "setting": "second compound 0.0003 µM, first compound 0.316 µM", "value": 13.4, "unit": "%"}, {"measurement": "viability, T/C", "setting": "second compound 0.0003 µM, first compound 1 µM", "value": 11.8, "unit": "%"}, {"measurement": "viability, T/C", "setting": "second compound 0.0003 µM, first compound 3.16 µM", "value": 12.4, "unit": "%"}, {"measurement": "viability, T/C", "setting": "second compound 0.0003 µM, first compound 10 µM", "value": 11.8, "unit": "%"}, {"measurement": "viability, T/C", "setting": "second compound 0.000949 µM, first compound 0.0316 µM", "value": 2.63, "unit": "%"}, {"measurement": "viability, T/C", "setting": "second compound 0.000949 µM, first compound 0.1 µM", "value": 2.57, "unit": "%"}, {"measurement": "viability, T/C", "setting": "second compound 0.000949 µM, first compound 0.316 µM", "value": 2.16, "unit": "%"}, {"measurement": "viability, T/C", "setting": "second compound 0.000949 µM, first compound 1 µM", "value": 2.23, "unit": "%"}, {"measurement": "viability, T/C", "setting": "second compound 0.000949 µM, first compound 3.16 µM", "value": 2.69, "unit": "%"}, {"measurement": "viability, T/C", "setting": "second compound 0.000949 µM, first compound 10 µM", "value": 1.43, "unit": "%"}, {"measurement": "viability, T/C", "setting": "second compound 0.003 µM, first compound 0.0316 µM", "value": 0.15, "unit": "%"}, {"measurement": "viability, T/C", "setting": "second compound 0.003 µM, first compound 0.1 µM", "value": 0.17, "unit": "%"}, {"measurement": "viability, T/C", "setting": "second compound 0.003 µM, first compound 0.316 µM", "value": 0.17, "unit": "%"}, {"measurement": "viability, T/C", "setting": "second compound 0.003 µM, first compound 1 µM", "value": 0.15, "unit": "%"}, {"measurement": "viability, T/C", "setting": "second compound 0.003 µM, first compound 3.16 µM", "value": 0.17, "unit": "%"}, {"measurement": "viability, T/C", "setting": "second compound 0.003 µM, first compound 10 µM", "value": 0.22, "unit": "%"}]}]}
